Source: US11279676B2 (CHIA TAI TIANQING PHARMACEUTICAL GROUP CO., LTD., priority 2018, dated 2022)
Where two headings read alike, the source gives them in different places.

How the values were obtained:
[1] = Hygroscopicity test (Chinese Pharmacopoeia 2015, General Chapter 9103); type: physicochemical; details: Guidelines for Drug Moisture Test, Chinese Pharmacopoeia 2015 Chapter 9103
Procedure: Took the crystalline form A, crystalline form B, crystalline form D and crystalline form E of the compound of formula I to conduct test according to the “Guidelines for Drug Moisture Test” of the Chinese Pharmacopoeia 2015 Edition Fourth General Chapter 9103, and respectively, the weight gain of samples due to hygroscopicity was calculated.

[2] = Pharmacokinetic test in rats (relative bioavailability after gavage); type: in vivo; details: intragastric 20 mg/kg in gavage capsules; for Relative F: relative to crystalline form A (100)
Procedure: The relative bioavailability of the compound of formula I in vivo was evaluated, after SD rats were gavaged with crystalline form A, crystalline form B, crystalline form D and crystalline form E of the compound of formula I.
Test samples: crystalline form A, crystalline form B, crystalline form D and crystalline form E of the compound of formula I filled in No. 9 gavage capsules separately
SD rats, weighing 180-200 g, after adaptation of 3-5 days, were randomly divided into 4 groups, with 4 rats in each group, and were respectively administered of crystalline form A, crystalline form B, crystalline form D and crystalline form E of the compound of formula I by intragastric administration at a dose of 20 mg/kg. The rats were fasted for 12 hours before administration and given food 4 hours after administration. Drinking water was free before and after the experiment and during the experiment.
After administration, the collection time points were 0.167 h (10 min), 0.5 h, 1 h, 2 h, 4 h, 6 h, 8 h, 10 h, and 24 h. About 0.3 mL of blood was collected from the orbital venous plexus and placed in a centrifuge tube containing EDTA-K2. Stored at 4° C. Centrifuged at a condition of 4° C., 4000 rpm, 10 min within 1 h, and stored at −20° C. to be tested.
Pipetted 50 μL of plasma sample to be tested, added 300 μL of acetonitrile solution containing internal standard, shook and mixed for 5 min, centrifuged at 13000 rpm for 10 min, took 30 μL of supernatant, added 150 μL of 50% acetonitrile aqueous solution, and pipetted 1 μL for LC/MS/MS analysis and determination.
Making use of liquid chromatography-tandem mass spectrometry (LC-MS/MS), with diazepam as an internal standard (IS), protein precipitation method was used to extract the analyte and internal standard from the plasma, and reverse phase chromatography column was adopted to separate compounds and internal standard. The analyte was quantified by electrospray ionization (ESI) mode of a tandem quadrupole mass spectrometer.

[3] = SD, rat, plasma, po, 20 mg/kg, mean of 4 rats
[4] = SD rats, plasma, mean of 4 rats, listed as Crystalline Form B of the Compound of Formula I
[5] = SD rats, plasma, mean of 4 rats, listed as Crystalline Form D of the Compound of Formula I
[6] = SD rats, plasma, mean of 4 rats, listed as Crystalline Form E of the Compound of Formula I

SMILES: COc1cc2c(Oc3ccc(NC(=O)C4(C(=O)Nc5ccc(F)cc5)CC4)cc3F)ccnc2cc1OCC1(NC2CCCC2)CC1 [Example 1]
- Weight Gain due to Hygroscopicity [1]: Less than 0.2%
- Relative F ([2]; SD rats, listed as Crystalline Form A of the Compound of Formula I): 100%
- AUC(0-inf) [2, 3]: 4960 ng·h/mL
- AUC(0-t) [2, 3]: 4700 ng·h/mL
- half-life [2, 3]: 4.93 h
- MRT last ([2]; SD, rat, plasma, po, 20 mg/kg, plasma, mean of 4 rats, read-out: MRT(0-t)): 8.51 h
- Tmax ([2]; SD, rat, plasma, po, 20 mg/kg, plasma, mean of 4 rats, read-out: Tmax): 6 h

SMILES: COc1cc2c(Oc3ccc(NC(=O)C4(C(=O)Nc5ccc(F)cc5)CC4)cc3F)ccnc2cc1OCC1(NC2CCCC2)CC1 [Example 2]
- MRT(0-t) [2, 4]: 6.72 h
- Tmax [2, 4]: 4.00 h
- t1/2 [2, 4]: 5.30 h
- Relative F ([2]; SD rats, listed as Crystalline Form B of the Compound of Formula I): 134%

SMILES: COc1cc2c(Oc3ccc(NC(=O)C4(C(=O)Nc5ccc(F)cc5)CC4)cc3F)ccnc2cc1OCC1(NC2CCCC2)CC1 [Example 4]
- MRT(0-t) [2, 5]: 8.73 h
- Tmax [2, 5]: 6.00 h
- t1/2 [2, 5]: 5.20 h
- Relative F ([2]; SD rats, listed as Crystalline Form D of the Compound of Formula I): 72%

SMILES: COc1cc2c(Oc3ccc(NC(=O)C4(C(=O)Nc5ccc(F)cc5)CC4)cc3F)ccnc2cc1OCC1(NC2CCCC2)CC1 [Example 5]
- MRT(0-t) [2, 6]: 7.30 h
- Tmax [2, 6]: 4.50 h
- t1/2 [2, 6]: 4.61 h
- Relative F ([2]; SD rats, listed as Crystalline Form E of the Compound of Formula I): 84%
